Test results from paper PMC5601486, “Identification of 4-phenylquinolin-2(1H)-one as a specific allosteric inhibitor of Akt” (Scientific Reports, 2017).
Where two headings read alike, the source gives them in different places.

Experiments:
Akt PH domain = target: T1, Akt PH domain (Homo sapiens, UniProt P31749); assay: Microscale thermophoresis; format: binding; conditions: recombinant Akt PH domain
T1 construct: The Akt samples tested include recombinant Akt PH domain; purchased Millipore
Description: (§1) Using 0.1 M Tris-HCl buffer (pH 7.2) containing 0.05% Tween-20, a 1:1 serial dilution was prepared for G7 to yield 16 working solutions, with the highest concentration being 200 µM. Each of these G7 solutions was mixed with 1 µM of purified Akt sample prepared in the same 0.05% Tween-20 Tris-HCl buffer. […] After 15-min incubation the samples were centrifuged at 14,000 g at 4 °C before loading into premium coated capillaries (NanoTemper Tech.) for MST measurements. The MST experiments was conducted on a Monolith NT.LabelFree instrument (NanoTemper Tech.), at 20% LED power and 40% MST power. Data analyses were performed using the NanoTemper analysis software.

full-length Akt = target: T2, full-length Akt (Homo sapiens, UniProt P31749); assay: Microscale thermophoresis; format: binding
T2 construct: purchased Millipore
T2 sequence (P31749 whole entry): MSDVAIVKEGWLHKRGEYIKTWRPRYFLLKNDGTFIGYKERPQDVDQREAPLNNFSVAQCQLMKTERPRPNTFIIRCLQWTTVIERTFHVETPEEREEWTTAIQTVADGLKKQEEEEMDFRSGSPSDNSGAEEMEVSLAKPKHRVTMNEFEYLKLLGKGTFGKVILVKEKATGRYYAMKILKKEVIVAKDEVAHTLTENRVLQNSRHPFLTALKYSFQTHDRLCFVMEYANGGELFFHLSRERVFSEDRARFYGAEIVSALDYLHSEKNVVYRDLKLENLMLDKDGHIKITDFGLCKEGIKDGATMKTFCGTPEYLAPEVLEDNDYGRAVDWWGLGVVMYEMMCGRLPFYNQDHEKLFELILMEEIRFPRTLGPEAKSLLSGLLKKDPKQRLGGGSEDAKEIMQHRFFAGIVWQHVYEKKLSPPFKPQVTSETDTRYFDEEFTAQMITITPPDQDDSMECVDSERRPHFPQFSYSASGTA
Description: as §1

TLK1 = assay: KINOMEscan; conditions: 50000 nM
Description: KINOMEscan™ selectivity screen
(§2) The assay was perfor med at DiscoveRx Corporation according the methods published previously5. Briefly, Kinase-tagged T7 phage strains were grown in parallel in an E. coli host derived from the BL21 strain. E. coli were grown to log-phase and infected with T7 phage from a frozen stock and incubated with shaking at 32°C until lysis (90-150 minutes). The kinases were produced in HEK-293 cells and subsequently tagged with DNA for qPCR detection. Streptavidin-coated magnetic beads were treated with biotinylated small molecule ligands to generate affinity resins for kinase
(§3) inhibitor or DMSO control was performed in polypropylene 384-well plates for 1 hr at room temperature. After wash with PBS buffer containing 0.05% Tween 20, the beads were incubated in elution buffer (PBS containing 0.05 % Tween 20 and 0.5 μM non-biotinylated affinity ligand) for 30 minutes at room temperature. The kinase concentration in the eluates was measured by qPCR.

DAPK1 = assay: KINOMEscan; conditions: 50000 nM
Description: KINOMEscan™ selectivity screen
as §2, §3

YES = assay: KINOMEscan; conditions: 50000 nM
Description: KINOMEscan™ selectivity screen
as §2, §3

PKMYT1 = assay: KINOMEscan; conditions: 50000 nM
Description: KINOMEscan™ selectivity screen
(§4) Briefly, Kinase-tagged T7 phage strains were grown in parallel in an E. coli host derived from the BL21 strain. E. coli were grown to log-phase and infected with T7 phage from a frozen stock and incubated with shaking at 32°C until lysis (90-150 minutes). The kinases were produced in HEK-293 cells and subsequently tagged with DNA for qPCR detection. Streptavidin-coated magnetic beads were treated with biotinylated small molecule ligands to generate affinity resins for kinase
as §3

CDC2L5 = test system: T3, CDC2L5; assay: KINOMEscan; format: binding, human; conditions: 50000 nM
T3 construct: purchased DiscoveRx KINOMEscan

ABL1-phosphorylated = assay: KINOMEscan; conditions: 50000 nM
Description: KINOMEscan™ selectivity screen
as §2, §3

[1] = test system: RSK4(Kin.Dom.1-N-terminal); assay: KINOMEscan; conditions: 50000 nM
Description: KINOMEscan™ selectivity screen
as §2, §3

GRK1 = assay: KINOMEscan; conditions: 50000 nM
Description: KINOMEscan™ selectivity screen
as §2, §3

ACVR1B = assay: KINOMEscan; conditions: 50000 nM
Description: KINOMEscan™ selectivity screen
as §2, §3

AAK1 = assay: KINOMEscan; conditions: 50000 nM
Description: KINOMEscan™ selectivity screen
as §2, §3

PRKCQ = assay: KINOMEscan; conditions: 50000 nM
Description: KINOMEscan™ selectivity screen
as §2, §3

DDR2 = assay: KINOMEscan; conditions: 50000 nM
Description: KINOMEscan™ selectivity screen
as §2, §3

CDK2 = assay: KINOMEscan; conditions: 50000 nM
Description: KINOMEscan™ selectivity screen
as §4, §3

mTORC2 = assay: Western blot of mTOR S2481 phosphorylation; format: cell-based, Mouse; conditions: all concentrations tested including 80 µM
Description: Neuro 2A cells were seeded in 12-well plates in DMEM containing 5% FBS for 24 hr.
After overnight serum starvation (in 0% FBS DMEM), cells were incubated for 30 min at 37 °C with G7 or LY294002 or Torin 1 (Sigma Aldrich) at various concentrations, or DMSO control. IGF-1 was added to each well at a final concentration of 100 ng/mL. After 30-min incubation cells were washed with cold PBS and lysed with 50 µL lysis buffer containing 1% Triton X-100 and protease/phosphatase inhibitors (Cell Signaling Technology) or RIPA buffer (Santa Cruz Biotech). Samples were electrophoresed in 4–12% Bis-Tris gels (Life Technologies) at 150 V using MOPS SDS running buffer. Proteins were transferred electrophoretically to a PVDF or nitrocellulose membrane. For detection of cleaved […]
caspase 3 a Trans-Blot Turbo Transfer System (Bio-Rad, 25 V for 25 min) with PVDF membrane were used. […]
anti- GAPDH (14C10) antibody (#2118) (all antibodies were from Cell Signaling Technology unless indicated, 1:1000 dilution was used) at 4°C overnight, washed three times with TBS-T, then incubated with peroxidase-conjugated secondary antibody (Sigma-Aldrich) for 1 hr at room temperature. […] Band intensity was quantitated using Kodak 1D imaging analysis software. […]

ARK5 = assay: KINOMEscan; conditions: 50000 nM
Description: KINOMEscan™ selectivity screen
as §4, §3

PCTK2 = assay: KINOMEscan; conditions: 50000 nM
Description: KINOMEscan™ selectivity screen
as §2, §3

EGFR(L858R) = assay: KINOMEscan; conditions: 50000 nM
Description: KINOMEscan™ selectivity screen
as §2, §3

[2] = test system: ABL1(T315I)-nonphosphorylated; assay: KINOMEscan; conditions: 50000 nM
Description: KINOMEscan™ selectivity screen
as §4, §3

NIK = assay: KINOMEscan; conditions: 50000 nM
Description: KINOMEscan™ selectivity screen
Briefly, Kinase-tagged T7 phage strains were grown in parallel in an E. coli host derived from the BL21 strain. E. coli were grown to log-phase and infected with T7 phage from a frozen stock and incubated with shaking at 32°C until lysis (90-150 minutes). The kinases were produced in HEK-293 cells and subsequently tagged with DNA for qPCR detection.
After wash with PBS buffer containing 0.05% Tween 20, the beads were incubated in elution buffer (PBS containing 0.05 % Tween 20 and 0.5 μM non-biotinylated affinity ligand) for 30 minutes at room temperature. The kinase concentration in the eluates was measured by qPCR.

FLT3(ITD,F691L) = assay: KINOMEscan; conditions: 50000 nM
Description: KINOMEscan™ selectivity screen
as §2, §3

PRKR = assay: KINOMEscan; conditions: 50000 nM
Description: KINOMEscan™ selectivity screen
as §2, §3

ERBB3 = assay: KINOMEscan; conditions: 50000 nM
Description: KINOMEscan™ selectivity screen
as §2, §3

DCAMKL1 = assay: KINOMEscan; conditions: 50000 nM
Description: KINOMEscan™ selectivity screen
as §2, §3

VPS34 = assay: KINOMEscan; conditions: 50000 nM
Description: KINOMEscan™ selectivity screen
as §2, §3

[3] = test system: TYK2(JH1domain-catalytic); assay: KINOMEscan; conditions: 50000 nM
Description: KINOMEscan™ selectivity screen
as §2, §3

PIM3 = assay: KINOMEscan; conditions: 50000 nM
Description: KINOMEscan™ selectivity screen
as §2, §3

PIK4CB = assay: KINOMEscan; conditions: 50000 nM
Description: KINOMEscan™ selectivity screen
as §2, §3

MERTK = assay: KINOMEscan; conditions: 50000 nM
Description: KINOMEscan™ selectivity screen
as §2, §3

[4] = test system: RSK1(Kin.Dom.2-C-terminal); assay: KINOMEscan; conditions: 50000 nM
Description: KINOMEscan™ selectivity screen
as §2, §3

T1 sequence (P31749 5-108 limits assumed): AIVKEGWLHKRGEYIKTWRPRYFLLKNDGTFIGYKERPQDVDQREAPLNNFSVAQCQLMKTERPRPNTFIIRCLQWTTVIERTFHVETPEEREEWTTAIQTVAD

Oc1cc(-c2ccccc2)c2ccccc2n1 [G7, 4-phenylquinolin-2(1H)-one]
Kd (Akt PH domain): 8 µM | Kd (full-length Akt; active Akt, read-out: Kd): 6.3 ± 2.9 µM | Kd (full-length Akt; full-length Akt regardless of the activation status, read-out: Kd values): 4 to 6 µM | Kd (full-length Akt; inactive Akt, read-out: Kd): 3.7 ± 1 µM | Percent Control (TLK1): 59% | Percent Control (DAPK1): 63% | Percent Control (YES): 93% | Percent Control (PKMYT1): 65% | Percent Control (CDC2L5): 87% | Percent Control (ABL1-phosphorylated): 73% | Percent Control [1]: 34% | Percent Control (GRK1): 75% | Percent Control (ACVR1B): 100% | Percent Control (AAK1): 62% | Percent Control (PRKCQ): 81% | Percent Control (DDR2): 87% | Percent Control (CDK2): 88% | phosphorylation of mTORC2 at S2481 (mTORC2): did not inhibit | Percent Control (ARK5): 59% | Percent Control (PCTK2): 99% | Percent Control (EGFR(L858R)): 83% | Percent Control [2]: 86% | Percent Control (NIK): 93% | Percent Control (FLT3(ITD,F691L)): 40% | Percent Control (PRKR): 74% | Percent Control (ERBB3): 88% | Percent Control (DCAMKL1): 87% | Percent Control (VPS34): 35% | Percent Control [3]: 72% | Percent Control (PIM3): 64% | Percent Control (PIK4CB): 64% | Percent Control (MERTK): 42% | Percent Control [4]: 39%
